Results on 1 substance are retold here after patent US6113896A, “Pharmaceutical compositions containing ecotin and homologs thereof” (priority 1994, dated 2000).

The subject of assay [1] is FXa. In words: FXa association rate constant. The format is biochemical, human. On the procedure:
Determination of FXa association rate constants The association rate of ecotin with FXa was determined as follows. At reference time zero, ecotin (7 nM final concentration) was added to FXa (5 nM final concentration) and TNCT buffer in a total volume of 3.0 ml. Immediately thereafter, 150 μl aliquots were removed at intervals over a period of 10 min and added to microtiter wells containing 50 μl 5 mM Spectrozyme fXa. The absorbance of the wells was monitored at 405 nm. Initial rates were determined for each well using the initial linear portion of each data set. The concentration of free enzyme versus time was plotted and the curves fitted to equation 4; values for kon were determined by nonlinear regression analysis.
The rate of association of a reversible inhibitor with enzyme is given by equation 2: [formula] Since measurements were made during the initial phase of the reaction, where dissociation of the E·I complex is negligible, the second term of equation 2 can be ignored. Therefore the rate of association is given by equation 3: [formula] […] The association rate constant for ecotin with FXa was determined by measuring free enzyme as a function of time and fitting the data to equation (4) by nonlinear regression analysis. A value for kon =(1.35±0.08)×10^6 M^-1 s^-1 was calculated for ecotin with FXa (FIG. 4A); kon values for ecotin mutants are shown in Table I.

In assay [2] the test system is normal human plasma. In words: Prothrombin time (PT) clotting assay. The format is biochemical. Particulars: initiation by TF. On the procedure:
Coagulation assays and Prolongation of Clotting Times Clotting times were performed using the ACL 300 Research Coagulation Analyzer. For the prothrombin time (PT) assays, the incubation time was set at 120 sec and acquisition time at 120 to 600 sec depending on the expected outcome of the assay. Membranes from 293 cells expressing TF (Paborsky, L. R. et al., Biochemistry 28:8072-8077 [1989]) were premixed with CaCl2. The sample (plasma and inhibitor) and reagent (CaCl2 /TF) were automatically mixed together after a 2 min incubation at 37° C. The clotting time was determined by optical assessment. The total incubation time of inhibitor with plasma before addition of CaCl2 /TF was ~5 min. Final concentrations were 78 nM to 7.8 μM ecotin, 3.7 nM TF (0.9 μg/ml by protein content), 22.5 mM CaCl2, and 50% plasma in a total volume of 160 μl.

Assay [3] concerns the target HLE (human leukocyte elastase). In words: Equilibrium inhibition constant with HLE. The format is biochemical. Particulars: apparent value, 0.08 mM MeOSuc-Ala-Ala-Pro-Val-MCA. How it is done:
(§1) Determination of Equilibrium Inhibition Constants Apparent Ki values (Ki *) for the inhibition of the enzymes tested by ecotin and mutants were measured as follows. All reactions were performed at 25° C. Stock solutions of trypsin were quantitated by active site burst titration with MUGB as previously described (Jameson, G. W. et al., Biochem. J. 131:107-117 [1973]) using a Fluoroskan II plate reader at excitation wavelength of 355 nm and emission wavelength of 460 nm. Data was collected on a Macintosh SE20 using either Delta Soft II Fl v3.31 software (BioMetallics). Active site titrated trypsin was then used to quantitate ecotin active sites using BAPA as the substrate; a stoichiometry of 1:1 was assumed (Chung, C. H. et al., supra). Factor Xa, Factor XIIa, plasma kallikrein, or HLE were then quantitated by active site titration using ecotin as a standard, again assuming 1:1 stoichiometry. In addition, the concentration of HLE was quantitated by methods previously described using a calibrated stock of α1 -proteinase inhibitor to titrate the HLE active sites (Beatty, K. et al., J. Biol. Chem. 255:3931-3934 [1980]); the same HLE active site concentration was determined using both ecotin and α1 -proteinase inhibitor. […]

Assay [4] has as its target human plasma kallikrein. In words: Equilibrium inhibition constant with plasma kallikrein. The format is biochemical. On the procedure:
as §1

Assay [5] addresses human FXIIa. In words: Equilibrium inhibition constant with Factor XIIa. The format is biochemical. The note with it: apparent value, 0.5 mM S2302. How it is done: as §1

Turning to “Ecotin: E. coli periplasmic protein having the 142 amino acid residue sequence reported by McGrath et al.; recombinant, P1 Met84”, the “time for complete inhibition of FXa” value in assay [1] (ca. 500 nM ecotin, maximum FXa concentration in blood ca. 200 nM) is on record as “approximately 7.4 sec”. The “association rate constant (kon) with FXa” value in assay [1] (full power of ten printed) turned out to be 1.35e+06 M⁻¹ s⁻¹. The “concentration causing 10-fold prolongation of clotting time, PT” value in assay [2] is around 2 μM; in assay [2] (listed as Wild type ecotin) it was ~ 2 μM. Further, the Ki in assay [3] was 50 pM; in assay [4] (plasma kallikrein=1.3 nM), 175 ± 20 pM; in assay [4] (plasma kallikrein=4.3 nM), 151 ± 20 pM; in assay [5], 124 ± 26 pM.
